Results on one compound are retold here after patent EP0088621A2, “Compositions for use in accelerating onset of sleep” (MASSACHUSETTS INSTITUTE OF TECHNOLOGY, priority 1982, dated 1983).

On the set-up of this series: species or system Normal adult volunteers. Conditions: in vivo. How it is done: Normal adult volunteers consumed 1 g of tryptophan; with or without 10 g of glucose; blood samples were assayed for tryptophan, LNAA, and their ratio after various intervals. Control subjects received only the tryptophan. The results are shown in Table I, 1 hour after administration.

On to `OC[C@H]1OC(O)[C@H](O)[C@@H](O)[C@@H]1O` (stereo partly shown) [glucose], for which the “increase of the plasma tryptophan/LNAA ratio by glucose” value was 40-50%.
